Reference: paper PMC11742080, “Decavanadate Compound Displays In Vitro and In Vivo Antitumor Effect on Melanoma Models” (Bioinorganic Chemistry and Applications, 2025)
Values joined by “and” are separate entries in the source; they are usually repeats but may differ in a detail not shown here. Equal values may be shown once.

Legend:
[1] = tested on: B16-F10 allografted C57BL/6 mice; test: B16-F10 melanoma allograft model in mice; type: in vivo
Description: The syngeneic transplantation model of melanoma, developed in this study, has been widely used for preclinical testing and offers the advantages of relative ease of use, fast turnaround time, and low cost. A total of 30 male C57BL/6 strain mice were previously adapted to animal facility conditions. The design of the experiment was performed as represented in Figure S2. At the start of the experiment, the backs of the mice were shaved. The mice were divided into four groups: • i. CTR− group: negative CTR group containing 6 mice. This group was injected with a solution of PBS by the subcutaneous route in the dorsal region. • ii. CTR+ group: positive CTR group containing 8 mice. In this group, the mice were subcutaneously injected once with 10^5 B16-F10 cells in the dorsal region at the beginning of the experiment. Four mice were sacrificed after 21 days, and the other 4 mice were sacrificed at the end of the experiment after 31 days. • iii. Cotreatment (CT) group: CT group containing 8 mice. This group was subcutaneously injected with 10^5 B16-F10 cells in the dorsal region and injected simultaneously with 2.5 mg/kg of decavanadate (Mg2Na2V10O28·20H2O), subcutaneously for 21 days of the experiment. All the mice were sacrificed after 21 days. • iv. Post-treatment (PT) group: PT group containing 8 mice. This group was subcutaneously injected with 10^5 B16-F10 cells in the dorsal region. After 21 days, each mouse of this group received a dose of 2.5 mg/kg of decavanadate (Mg2Na2V10O28·20H2O), as a treatment for 10 days. For this group, animals were sacrificed on the 31st day. The experimental design scheme is illustrated in Figure S2.

[2] = tested on: HaCaT normal human keratinocytes; test: MTT cell viability assay, HaCaT; type: cell-based
Description: (§1) The MTT assay was first described as a sensitive, quantitative, and reliable colorimetric assay to measure the viability, proliferation, and activation of cells. Cell viability was assessed at 24 and 72 h of treatment to evaluate cytotoxicity and the effect on cell proliferation of the decavanadate compound, respectively. The concentrations of the decavanadate compound have been determined by weighing the compound in its crystal form and then solubilizing it in distilled water.
(§2) All cell lines were seeded in 96-well plates (Nunc, Roskilde, Denmark) at a density of 10^4 cells per well and were incubated overnight, before treatment with different concentrations of the decavanadate compound. After 24 or 72 h of treatment, fresh media solution containing MTT at 0.5 mg/mL was added to cells and incubated for 3 h at 37°C. The formed formazan crystals were then dissolved in DMSO, and the absorbance was measured at 560 nm using a BioTek EON Microplate Spectrophotometer (Fisher Scientific). Cell viability was expressed as a percentage of the viable cell number of the untreated cells (control [CTR]).
(§3) The concentration of the decavanadate compound required for 50% growth inhibition (IC50 value) was estimated as resulting in a 50% decrease in absorbance, compared to the CTR.

[3] = tested on: SKMEL28 human melanoma cells; test: MTT cell viability assay, SKMEL28; type: cell-based
Description: as §1, §2, §3

Swiss albino mice = test: In vivo toxicity/safety assessment, 12 days i.p.; conditions: for ALT / AST / Creatinine: plasma
Description: In order to investigate the safety of the Mg2Na2V10O28·20H2O compound, three doses of 20, 50, and 100 μg were tested on male Swiss albino mice of ∼20 g weight each. Mice were randomly allocated in four groups of eight mice each. These doses correspond to 1, 2.5, and 5 mg/kg, respectively. A stock solution of 7.5 mg/mL (5.5 mM) was first prepared in PBS (1x). Dilutions were done to obtain 3 solutions of 0.2 mg/mL (146 μM), 0.5 mg/mL (366 μM), and 1 mg/mL (732 μM) in PBS, from which a volume of 100 μL was injected to each mouse, corresponding to the three doses. These doses were chosen based on our previous study. Mice of the CTR group received 100 μL of PBS. Decavanadate compound or vehicle was administered daily by intraperitoneal injection for 12 consecutive days in the morning between 09:00 and 10:00 a.m.
Animals were observed individually for general behavior, toxicity symptoms, and mortality during the first 30 min and then daily during the experiment. The body weights were measured at the beginning and at the end of the […]. On Day 12, blood samples were drawn from the facial vein of each mouse, using capillary tubes, containing heparin (as an anticoagulant component), for biochemical parameters studies. Mice were then sacrificed by cervical dislocation, and their organs (liver and kidney) were excised. The organs were then fixed in 10% buffered formalin for histopathological examination.
Plasma samples were obtained by blood centrifugation at 3000 rpm for 10 min and kept at −20°C. The activities of hepatic enzymes, such as aspartate aminotransferase (AST) and alanine aminotransferase (ALT), and creatinine levels were assessed with commercially available diagnostic kits supplied by Biomaghreb Laboratories (Tunisia). Enzymatic activity was expressed in international units per liter (IU/L). Additionally, we focused on measuring the activity of enzymes involved in hepatic metabolism to evaluate the effect of decavanadate accumulation on liver function. Creatinine level was expressed in mg/L.
Liver and kidney organs in formalin were washed and dehydrated using alcohol. Paraffin-embedded sections were cut at 5-6 μm thickness and stained with hematoxylin and eosin for microscopic examination at 20x and 40x magnification.

Substance: dimagnesium disodium decavanadate icosahydrate [Mg2Na2V10O28·20H2O]
- Inhibition of tumor development ([1]; 2.5 mg/kg (50 μg), versus nontreated allografted mice): 70%
- Behavior of allografted mice ([1]; cotreated, 2.5 mg/kg, compared to CTR− group): no change in the behavior
- Tumor appearance at day 21 ([1]; cotreatment (CT) group, 2.5 mg/kg s.c. for 21 days): no skin changes
- Skin histology, cotreated mice ([1]; cotreatment (CT) group, 2.5 mg/kg, day 21): disappearance of melanoma
- Average size of the tumor ([1]; post-treatment (PT) group, 2.5 mg/kg for 10 days from day 21, day 31): 8.2 mm
- Skin histology, post-treated mice ([1]; post-treatment (PT) group, 2.5 mg/kg, day 31): appearance of dermal melanoma associated with invasive nests of atypical discohesive melanocytes and dusty pigmentation
- Effect on viability of normal keratinocytes ([2]; 24 h treatment): little effect
- IC50 ([2]; 24 h treatment, MTT): > 70.8 µM
- IC50 ([2]; 72 h treatment, MTT): 8.9 µM
- IC50, cell viability ([2]; 72 h treatment, MTT): 12.7 µg/mL
- IC50 ([3]; SKMEL28, 24 h treatment): 10.8 µM
- IC50 ([3]; SKMEL28, 72 h treatment): 4.1 µM
- Liver histological analysis (Swiss albino mice; 50 μg (2.5 mg/kg), 12 days): necrosis
- Liver histological analysis (Swiss albino mice; 100 μg (5 mg/kg), 12 days): lymphohistiocytic inflammatory infiltrate in the portal tract
- Biochemical parameters (AST, ALT, creatinine) versus control (Swiss albino mice; 1 mg/kg i.p. daily, 12 days): comparable to the negative CTR
- ALT (Swiss albino mice; 2.5 mg/kg i.p. daily, 12 days): 48.75 ± 2.96 IU/L
- AST (Swiss albino mice; 2.5 mg/kg i.p. daily, 12 days): 32.83 ± 1.09 IU/L
- Creatinine (Swiss albino mice; 2.5 mg/kg i.p. daily, 12 days): 2.45 mg/L and 2.45 ± 0.28^∗ mg/L
- Kidney histology (Swiss albino mice; 2.5 mg/kg, 12 days): no difference compared to those of the CTR group
- ALT (Swiss albino mice; 5 mg/kg i.p. daily, 12 days): 81.67 ± 5.12^∗∗∗ IU/L
- AST (Swiss albino mice; 5 mg/kg i.p. daily, 12 days): 45.63 ± 1.21^∗∗ IU/L
- Creatinine (Swiss albino mice; 5 mg/kg i.p. daily, 12 days): 2.80 ± 0.312^∗∗ mg/L
- Kidney histology (Swiss albino mice; 5 mg/kg, 12 days): mild interstitial lymphocytic inflammatory infiltrate
- Mortality and signs of toxicity (weight loss, behavioral abnormalities) (Swiss albino mice; 1, 2.5 or 5 mg/kg, i.p. daily for 12 days, Swiss albino mice): No mortality or signs of toxicity
